Measured values taken from US9409914B2, “Triazolo[4,5-d]pyrimidine derivatives” (Merck Patent GmbH, priority 2012, dated 2016).

Columns and labels:
[1] = biological target: T1, GCN2 (Homo sapiens, UniProt Q9P2K8); experiment: Cellular assay for GCN2 activity (phospho-eIF2alpha immunocytochemistry, tryptophanol-stimulated U2OS cells); assay type: cell-based; parameters: endogenous in cells; host or cells: U2OS; settings: 2 hours compound, then 600 μM tryptophanol 30 minutes, anti-phospho-eIF2alpha, read-out: IC50 GCN2 (cell assay)
Method: Cellular Assay for the Determination of Compound Activities
Human U2OS cells (2000 cells/well) are seeded into 384-well plates and incubated for 20 hours.
The next day, the cells are treated with the test compounds and incubated for 2 hours. Then, tryptophanol, at a final concentration of 600 μM, is added to the cells and those are incubated for 30 minutes.
The analysis of cellular GCN2 activities is done by immunocytochemistry. Briefly, cells are fixated on the well surfaces by formaldehyde and permeabilised with Triton X-100. The primary antibody (anti-phospho-eIF2alpha (Ser51, Cell Signalling Technology, #3398) is incubated on the treated cells for 20 hours, followed by a 60 minutes incubation of the secondary antibody (anti-rabbit-IgG-Alexa 488; Molecular Probes #11008). The analysis and quantification of phosphorylated GCN2 is done by scanning the plates in the Acumen Explorer system (TTPLabtech). The obtained data are normalised against the untreated control wells (DMSO only) and expressed as % effect values. The determination of IC50 values is done by using the Graph Pad Prism software.
Target sequence in this assay (Q9P2K8 whole entry): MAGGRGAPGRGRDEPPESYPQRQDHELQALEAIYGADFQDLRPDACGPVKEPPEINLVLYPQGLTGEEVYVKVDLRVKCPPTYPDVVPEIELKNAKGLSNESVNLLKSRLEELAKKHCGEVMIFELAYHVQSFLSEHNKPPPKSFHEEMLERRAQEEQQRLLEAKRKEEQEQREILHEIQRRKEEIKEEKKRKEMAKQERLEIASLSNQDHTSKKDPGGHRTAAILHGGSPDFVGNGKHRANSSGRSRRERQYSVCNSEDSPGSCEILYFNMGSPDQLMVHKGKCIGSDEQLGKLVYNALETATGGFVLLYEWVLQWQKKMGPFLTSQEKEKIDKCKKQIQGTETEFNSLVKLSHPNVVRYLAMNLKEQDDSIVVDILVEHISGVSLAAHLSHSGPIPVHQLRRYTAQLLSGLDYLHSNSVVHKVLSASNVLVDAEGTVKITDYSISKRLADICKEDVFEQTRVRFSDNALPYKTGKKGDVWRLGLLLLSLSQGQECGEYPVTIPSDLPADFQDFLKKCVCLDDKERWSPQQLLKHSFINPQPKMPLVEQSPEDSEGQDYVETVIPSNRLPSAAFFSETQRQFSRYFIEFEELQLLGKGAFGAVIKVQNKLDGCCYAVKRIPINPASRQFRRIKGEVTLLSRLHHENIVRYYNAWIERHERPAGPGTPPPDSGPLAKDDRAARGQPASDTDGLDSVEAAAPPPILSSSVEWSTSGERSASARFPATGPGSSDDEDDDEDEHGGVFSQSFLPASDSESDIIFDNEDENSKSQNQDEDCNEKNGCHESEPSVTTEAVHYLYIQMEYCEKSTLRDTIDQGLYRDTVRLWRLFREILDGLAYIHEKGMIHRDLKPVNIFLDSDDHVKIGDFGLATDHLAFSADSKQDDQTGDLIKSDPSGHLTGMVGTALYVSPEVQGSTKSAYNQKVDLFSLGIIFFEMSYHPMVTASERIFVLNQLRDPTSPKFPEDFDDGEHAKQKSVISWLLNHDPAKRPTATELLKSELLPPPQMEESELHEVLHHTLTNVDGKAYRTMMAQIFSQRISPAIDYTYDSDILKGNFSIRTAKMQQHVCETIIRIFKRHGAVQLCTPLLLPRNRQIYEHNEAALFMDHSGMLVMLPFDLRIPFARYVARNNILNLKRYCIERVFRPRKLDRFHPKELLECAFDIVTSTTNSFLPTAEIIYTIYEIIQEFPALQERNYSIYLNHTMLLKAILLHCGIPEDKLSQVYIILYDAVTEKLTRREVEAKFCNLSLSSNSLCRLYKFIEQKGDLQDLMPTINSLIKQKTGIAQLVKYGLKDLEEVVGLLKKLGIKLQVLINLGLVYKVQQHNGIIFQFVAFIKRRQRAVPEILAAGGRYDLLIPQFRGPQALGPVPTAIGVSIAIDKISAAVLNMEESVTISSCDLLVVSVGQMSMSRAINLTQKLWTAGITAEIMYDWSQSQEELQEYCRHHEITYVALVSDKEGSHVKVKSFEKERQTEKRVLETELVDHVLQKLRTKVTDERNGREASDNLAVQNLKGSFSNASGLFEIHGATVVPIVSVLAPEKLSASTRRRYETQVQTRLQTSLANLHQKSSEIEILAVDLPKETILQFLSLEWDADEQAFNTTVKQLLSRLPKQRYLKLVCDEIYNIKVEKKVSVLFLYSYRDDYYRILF

[2] = biological target: T1, GCN2; experiment: GCN2 enzyme assay (TR-FRET Lanthascreen, phosphorylation of GFP-eIF2alpha); assay type: biochemical; settings: 10 μM ATP, 80 nM GFP-eIF2alpha, 30 nM GCN2, room temperature
Outline: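 Two-step TR-FRET (Lanthascreen) format: GCN2 incubated at room temperature with 10 μM ATP and 80 nM GFP-labelled eIF2alpha, then stopped with EDTA. Phospho-eIF2alpha detected by Tb-labelled antibody, excitation 340 nm; activity taken from the 520/495 nm emission ratio.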
Target sequence in this assay (Q9P2K8 whole entry, species assumed): as the sequence (Q9P2K8 whole entry) above

SMILES	IC50 [1]	IC50 [2]
COCCOc1ccc(-n2nnc3cnc(Nc4cnn([C@H]5CC[C@H](O)CC5)c4)nc32)cc1 [Compound A108, 4-(4-{3-[4-(2-methoxy-ethoxy)-phenyl]-3H-[1,2,3]triazolo[4,5-d]pyrimidin-5-ylamino}-pyrazol-1-yl)-cyclohexanol]	3000 to 50000 nM	< 300 nM
CN1CCC(n2cc(Nc3ncc4nnn(-c5ccc(F)c(Cl)c5)c4n3)cn2)CC1 [Compound A111, [3-(3-chloro-4-fluoro-phenyl)-3H-[1,2,3]triazolo[4,5-d]pyrimidin-5-yl]-[1-(1-methyl-piperidin-4-yl)-1H-pyrazol-4-yl]-amine]	3000 to 50000 nM	300 to 3000 nM
CCOc1ccc(-n2nnc3cnc(Nc4cnn(CCN5CCOCC5)c4)nc32)cc1 [Compound A115, [3-(4-ethoxy-phenyl)-3H-[1,2,3]triazolo[4,5-d]pyrimidin-5-yl]-[1-(2-morpholin-4-yl-ethyl)-1H-pyrazol-4-yl]-amine]	3000 to 50000 nM	< 300 nM
CCn1cc(Nc2ncc3nnn(-c4ccc(C(=O)OC)cc4)c3n2)cn1 [Compound A117, 4-[5-(1-ethyl-1H-pyrazol-4-ylamino)-[1,2,3]triazolo[4,5-d]pyrimidin-3-yl]-benzoic acid methyl ester]	300 to 3000 nM	< 300 nM
CN1CCC(n2cc(Nc3ncc4nnn(-c5cccc(F)c5)c4n3)cn2)CC1 [Compound A118, [3-(3-fluoro-phenyl)-3H-[1,2,3]triazolo[4,5-d]pyrimidin-5-yl]-[1-(1-methyl-piperidin-4-yl)-1H-pyrazol-4-yl]-amine]	300 to 3000 nM	< 300 nM
CC(C)(O)c1ccc(-n2nnc3cnc(Nc4cnn(C5CCOCC5)c4)nc32)cc1 [Compound A119, 2-(4-{5-[1-(tetrahydro-pyran-4-yl)-1H-pyrazol-4-ylamino]-[1,2,3]triazolo[4,5-d]pyrimidin-3-yl}-phenyl)-propan-2-ol]	300 to 3000 nM	< 300 nM
CN1CCC(n2cc(Nc3ncc4nnn(-c5ccc(F)c(F)c5)c4n3)cn2)CC1 [Compound A120, [3-(3,4-difluoro-phenyl)-3H-[1,2,3]triazolo[4,5-d]pyrimidin-5-yl]-[1-(1-methyl-piperidin-4-yl)-1H-pyrazol-4-yl]-amine]	3000 to 50000 nM	300 to 3000 nM
CCn1cc(Nc2ncc3nnn(-c4ccc(C(C)(C)O)cc4)c3n2)cn1 [Compound A121, 2-{4-[5-(1-ethyl-1H-pyrazol-4-ylamino)-[1,2,3]triazolo[4,5-d]pyrimidin-3-yl]-phenyl}-propan-2-ol]	300 to 3000 nM	< 300 nM
Fc1cccc(-n2nnc3cnc(Nc4cnn(C5CCOCC5)c4)nc32)c1 [Compound A122, [3-(3-fluoro-phenyl)-3H-[1,2,3]triazolo[4,5-d]pyrimidin-5-yl]-[1-(tetrahydro-pyran-4-yl)-1H-pyrazol-4-yl]-amine]	300 to 3000 nM	< 300 nM
COc1ccc(-n2nnc3cnc(Nc4cnn(CCn5cccn5)c4)nc32)nc1 [Compound A124, [3-(5-methoxy-pyridin-2-yl)-3H-[1,2,3]triazolo[4,5-d]pyrimidin-5-yl]-[1-(2-pyrazol-1-yl-ethyl)-1H-pyrazol-4-yl]-amine]	3000 to 50000 nM	< 300 nM
CCOc1ccc(-n2nnc3cnc(Nc4cnn(CCCC5CCNCC5)c4)nc32)cc1 [Compound A125, [3-(4-ethoxy-phenyl)-3H-[1,2,3]triazolo[4,5-d]pyrimidin-5-yl]-[1-(3-piperidin-4-yl-propyl)-1H-pyrazol-4-yl]-amine]	< 300 nM	< 300 nM
Fc1cccc(-n2nnc3cnc(Nc4cnn(CCn5cccn5)c4)nc32)c1 [Compound A126, [3-(3-fluoro-phenyl)-3H-[1,2,3]triazolo[4,5-d]pyrimidin-5-yl]-[1-(2-pyrazol-1-yl-ethyl)-1H-pyrazol-4-yl]-amine]	3000 to 50000 nM	< 300 nM
CCn1cc(Nc2ncc3nnn(-c4ccc(C(C)(C)OCCO)cc4)c3n2)cn1 [Compound A127, 2-(1-{4-[5-(1-ethyl-1H-pyrazol-4-ylamino)-[1,2,3]triazolo[4,5-d]pyrimidin-3-yl]-phenyl}-1-methyl-ethoxy)-ethanol]	300 to 3000 nM	< 300 nM
CCn1cc(Nc2ncc3nnn(-c4ccc(C(C)(C)F)cc4)c3n2)cn1 [Compound A128, (1-ethyl-1H-pyrazol-4-yl)-{3-[4-(1-fluoro-1-methyl-ethyl)-phenyl]-3H-[1,2,3]triazolo[4,5-d]pyrimidin-5-yl}-amine]	300 to 3000 nM	< 300 nM
CC(C)(OCCO)c1ccc(-n2nnc3cnc(Nc4cnn(C5CCOCC5)c4)nc32)cc1 [Compound A130, 2-[1-methyl-1-(4-{5-[1-(tetrahydro-pyran-4-yl)-1H-pyrazol-4-ylamino]-[1,2,3]triazolo[4,5-d]pyrimidin-3-yl}-phenyl)-ethoxy]-ethanol]	300 to 3000 nM	< 300 nM
